Peptide text beside a SMILES is read from it.
Experiments:
ZIKV strain MR766 [1] = assay: ZIKV virion levels in astrocyte supernatants, plaque-forming assay on Vero cells; type: cell-based, Zika virus; details: human fetal astrocytes; peptide 0.4 to 10 µM pre-treatment; supernatants titrated on Vero cells
Method: (A) Human fetal astrocytes were treated with doses of the selected peptides ranging from 1 to 50 µM. After 24 h, the cultures were washed and treated with same doses of peptides in fresh medium for another 24 h. Cell viability was determined by a colorimetric MTS assay. Results shown are the averages ±SD of experiments performed in triplicate. Data were analyzed by nonlinear regression and assessed the EC50 for each of the antimicrobial peptides. (B–E) Astrocytes were treated with doses of antimicrobial peptides ranging from 0.4 to 10 µM for 2 h then infected with ZIKV at the MOI of 0.5. After 24 h, the cultures were washed and treated with same doses of antimicrobial peptides in fresh medium for another 24 h. At the experimental endpoint, intracellular ZIKV RNA (B) was determined through real-time RT-PCR in total cellular RNA. Data were normalized to GAPDH and presented as fold change (in log scale) compared with ZIKV group. Extracellular ZIKV RNA [(C), in log scale] was determined through real-time RT-PCR using total RNA isolated from cell-free supernatants. ZIKV virion levels (in log scale) were determined by adding cell-free culture supernatants to Vero cells and overlaid with Agar gel in viral PFA (D). Viral plaques were manually counted and calculated as PFU/mL (E). * p < 0.05, ** p < 0.01, and *** p < 0.001, as compared with the ZIKV group without peptide treatment (ANOVA, N = 3).

ZIKV strain MR766 [2] = assay: ZIKV RNA at 2-h post-infection in pre-treated human fetal astrocytes (early infection / entry); type: cell-based, Zika virus; details: astrocytes treated with AMPs 2 h at 37°C, then ZIKV MOI 0.5 for 2 h; normalized to 18-s rRNA; N = 3
Method: Total mRNA was isolated with TRIzol Reagent (Thermo Fisher Scientific) and RNeasy Mini Kit (QIAGEN Inc., Valencia, CA, USA) following the manufacturer’s recommendations. Two real-time RT-PCR methods were used for the current studies. First, SYBR Green-based RT-PCR assay was used to determine intracellular ZIKV RNA in Vero cells. For this assay, reverse transcription was performed using Verso cDNA synthesis Kit (Thermo Fisher Scientific) and 1 µg of total RNA in a 15-µL final volume. The RT-PCR analyses were performed using 7.5-µL SYBR Green PCR Master Mix (Thermo Fisher Scientific) with 0.5-µL cDNA, 1.5-µL H2O, 5.5-µL oligonucleotide primer pairs at 10 µM. […] Relative ZIKV RNA levels were determined and standardized with a GAPDH internal control using comparative ΔΔCT method ([35]). […] Relative ZIKV mRNA levels were determined and standardized with a GAPDH or 18-s rRNA endogenous control using comparative ΔΔCT method ([35]). All reference genes, including GAPDH, β-actin, and 18-s rRNA, detected identical changes of genes (Figure S1 in Supplementary Material). […] Quantitative genomic RNA from ZIKV (NR-1838DQ, ATCC) was used as a standard to calculate viral copies. […]
(A) Primary human fetal astrocytes were pre-incubated at 4°C for half an hour and then treated with antimicrobial peptides along with ZIKV infection at the MOI of 0.5 for 2 h. […] ZIKV RNA was determined through real-time RT-PCR.

Row | SMILES | ZIKV virions (PFU/mL) in supernatants (ZIKV strain MR766 [1]) | ZIKV RNA at 2-h post-infection compared with untreated ZIKV group (ZIKV strain MR766 [2])
1 | CC[C@H](C)[C@H](NC(=O)[C@H](CCCNC(=N)N)NC(=O)[C@H](CCC(N)=O)NC(=O)[C@@H](NC(=O)[C@@H](NC(=O)[C@H](CCCNC(=N)N)NC(=O)[C@H](CCCCN)NC(=O)[C@H](Cc1ccccc1)NC(=O)CN)[C@@H](C)CC)C(C)C)C(=O)N[C@@H](CCCCN)C(=O)N[C@@H](CC(=O)O)C(=O)N[C@@H](Cc1ccccc1)C(=O)N[C@@H](CC(C)C)C(=O)N[C@@H](CCCNC(=N)N)C(=O)N[C@@H](CC(N)=O)C(=O)N[C@@H](CC(C)C)C(=O)N[C@H](C(N)=O)C(C)C [GF-17] (H-GFKRIVQRIKDFLRNLV-NH2; N-terminus and C-terminus assumed) | ZIKV virions were reduced | significantly decreased ZIKV RNA
2 | CC[C@H](C)[C@H](NC(=O)[C@H](CCCCN)NC(=O)[C@H](CCCCN)NC(=O)[C@H](Cc1ccccc1)NC(=O)[C@H](CC(C)C)NC(=O)[C@H](CCCCN)NC(=O)[C@H](CCCCN)NC(=O)[C@H](Cc1ccccc1)NC(=O)[C@H](CCCCN)NC(=O)[C@H](CCCCN)NC(=O)[C@H](CCCNC(=N)N)NC(=O)[C@H](Cc1ccccc1)NC(=O)[C@H](CCCNC(=N)N)NC(=O)[C@H](CCCCN)NC(=O)[C@H](Cc1ccccc1)NC(=O)[C@H](CCCNC(=N)N)NC(=O)CN)C(=O)N[C@@H](CO)C(=O)O [BMAP-18] (H-GRFKRFRKKFKKLFKKIS-OH; N-terminus and C-terminus assumed) | ZIKV virions were reduced | significantly decreased ZIKV RNA

Reference: PMC5906549, “Cathelicidin-Derived Antimicrobial Peptides Inhibit Zika Virus Through Direct Inactivation and Interferon Pathway” (Frontiers in Immunology, 2018)
